Our source for the MIC values is ChEMBL document CHEMBL1155592, “New antibacterial metabolites from the cyanobacterium Nostoc commune(EAWAG 122b)” (2000).

The test system of assay [1] is Staphylococcus epidermidis. Briefly: Antibacterial activity against Staphylococcus epidermidis ATCC 12228. Format: functional.
A further assay deals with Bacillus cereus. Kind of assay: Antibacterial activity against Bacillus cereus ATCC 10702. Format: functional.

≈ marks a conversion by molar mass, not a printed value.

Broadly, the MIC is the least concentration at which growth counts as inhibited. On to `Cc1ccc(O)c2c1C(=O)c1cccc(O)c1C2=O`, for which the MIC (in assay [1]; against Bacillus cereus) was 32 µg/mL (≈ 126 µM) in each case.
Take `C[C@@H]1C[C@H](O)C2=C3[C@@H](C[C@@H]4C(C)(C)[C@H](O)CC[C@@]24C)Oc2ccc(C(=O)O)cc2C[C@@]31C`: the MIC in assay [1] was found to be 4 µg/mL (≈ 9.08 µM); with Bacillus cereus it was 128 µg/mL (≈ 291 µM).
For `Cc1ccc(O)c2c1C(=O)CC2`, in that order: 128 µg/mL (≈ 789 µM) and 64 µg/mL (≈ 395 µM).
In the case of `O=C(N[C@H](CO)[C@H](O)c1ccc([N+](=O)[O-])cc1)C(Cl)Cl` [CHLORAMPHENICOL], the MIC in assay [1] was 4 µg/mL (≈ 12.4 µM); in the assay on Bacillus cereus it was 8 µg/mL (≈ 24.8 µM).
